Measured values as given in patent publication US20250250269A1, “HETEROCYCLIC GLP-1 AGONISTS” (Gasherbrum Bio, Inc., priority 2022, published 2025).

molecular target: T1, GLP-1 Receptor (Homo sapiens, UniProt P43220); test: GLP-1R agonist cAMP stimulation assay (HEK293/GLP1R/CRE-LUC cells, Cisbio cAMP dynamic 2 kit); format: cell-based; conditions: HEK293/CRE-Luc cells stably expressing the GLP-1 Receptor, 30 min at 37° C.
T1 construct: host or cells: HEK293/CRE-Luc (HEK293/GLP1R/CRE-LUC)
Procedure, shortened: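 HEK293 CRE-Luc cells stably expressing GLP-1R (1000 cells/well) treated with compounds in ½-log dilution for 30 min at 37 °C in DPBS with 0.5 mM IBMX and 0.1% BSA. cAMP quantified by HTRF (cAMP-d2/anti-cAMP cryptate, 1 h, room temperature), fluorescence read at 665 and 615 nm.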

T1 sequence (P43220 24-463, species assumed): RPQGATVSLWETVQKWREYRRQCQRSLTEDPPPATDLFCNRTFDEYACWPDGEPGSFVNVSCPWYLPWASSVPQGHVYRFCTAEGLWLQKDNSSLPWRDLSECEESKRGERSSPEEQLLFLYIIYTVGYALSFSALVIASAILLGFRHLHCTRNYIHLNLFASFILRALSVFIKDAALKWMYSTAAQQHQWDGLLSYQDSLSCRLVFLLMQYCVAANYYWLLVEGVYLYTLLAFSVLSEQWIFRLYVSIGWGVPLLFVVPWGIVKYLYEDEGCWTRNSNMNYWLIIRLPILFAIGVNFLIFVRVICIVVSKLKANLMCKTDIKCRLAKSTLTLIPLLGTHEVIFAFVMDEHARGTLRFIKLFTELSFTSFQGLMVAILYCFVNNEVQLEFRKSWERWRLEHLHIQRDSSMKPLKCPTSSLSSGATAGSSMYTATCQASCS

EC50, < 1 nM:
O=C1CN(Cc2nc3cc(-c4nnc(C(F)(F)F)[nH]4)ncc3n2C[C@@H]2CCO2)CCN1c1ccc(F)c(OCc2ccc(Cl)cc2F)c1 [Compound 51, 1-{3-[(4-chloro-2-fluorophenyl)methoxy]-4-fluorophenyl}-4-[(3-{[(2S)-oxetan-2-yl]methyl}-6-[5-(trifluoromethyl)-4H-1,2,4-triazol-3-yl]-3H-imidazo[4,5-c]pyridin-2-yl)methyl]piperazin-2-one]
O=C1CN(Cc2nc3cc(-c4nnc(C(F)(F)F)[nH]4)ncc3n2C[C@@H]2CCO2)CCN1c1ccc(F)c(OCc2ccc(Cl)cc2F)n1 [Compound 52, 1-{6-[(4-chloro-2-fluorophenyl)methoxy]-5-fluoropyridin-2-yl}-4-[(3-{[(2S)-oxetan-2-yl]methyl}-6-[5-(trifluoromethyl)-4H-1,2,4-triazol-3-yl]-3H-imidazo[4,5-c]pyridin-2-yl)methyl]piperazin-2-one]
CC1(c2ccc(F)cc2F)Oc2cccc(C3CCN(Cc4nc5cc(-c6nnc(C(F)(F)F)[nH]6)cnc5n4C[C@@H]4CCO4)CC3)c2O1 (stereo partly drawn) [Compound 53, 4-[2-(2,4-difluorophenyl)-2-methyl-2H-1,3-benzodioxol-4-yl]-1-[(3-{[(2S)-oxetan-2-yl]methyl}-6-[5-(trifluoromethyl)-4H-1,2,4-triazol-3-yl]-3H-imidazo[4,5-b]pyridin-2-yl)methyl]piperidine]
CC1(c2ccc(F)cc2F)Oc2cccc(C3CCN(Cc4nc5cc(-c6nnc(C(F)(F)F)[nH]6)ncc5n4C[C@@H]4CCO4)CC3)c2O1 (stereo partly drawn) [Compound 54, 4-[2-(2,4-difluorophenyl)-2-methyl-2H-1,3-benzodioxol-4-yl]-1-[(3-{[(2S)-oxetan-2-yl]methyl}-6-[5-(trifluoromethyl)-4H-1,2,4-triazol-3-yl]-3H-imidazo[4,5-c]pyridin-2-yl)methyl]piperidine]
Cc1ccc(C2(C)Oc3cccc(C4CCN(Cc5nc6cc(-c7nnc(C(F)(F)F)[nH]7)ncc6n5C[C@@H]5CCO5)CC4)c3O2)cn1 (stereo partly drawn) [Compound 55, 2-methyl-5-[2-methyl-4-{1-[(3-{[(2S)-oxetan-2-yl]methyl}-6-[5-(trifluoromethyl)-4H-1,2,4-triazol-3-yl]-3H-imidazo[4,5-c]pyridin-2-yl)methyl]piperidin-4-yl}-2H-1,3-benzodioxol-2-yl]pyridine]
Cc1ccc(C2(C)Oc3cccc(C4CCN(Cc5nc6cc(-c7nnc(C(F)(F)F)[nH]7)cnc6n5C[C@@H]5CCO5)CC4)c3O2)cn1 (stereo partly drawn) [Compound 56, 2-methyl-5-[2-methyl-4-{1-[(3-{[(2S)-oxetan-2-yl]methyl}-6-[5-(trifluoromethyl)-4H-1,2,4-triazol-3-yl]-3H-imidazo[4,5-b]pyridin-2-yl)methyl]piperidin-4-yl}-2H-1,3-benzodioxol-2-yl]pyridine]
O[C@@H]1CN(Cc2nc3cc(-c4nnc(C(F)(F)F)[nH]4)ncc3n2C[C@@H]2CCO2)CC[C@H]1c1cccc(OCc2ccc(Cl)cc2F)n1 [Compound 57, (3,4-trans)-4-{6-[(4-chloro-2-fluorophenyl)methoxy]pyridin-2-yl}-1-[(3-{[(2S)-oxetan-2-yl]methyl}-6-[5-(trifluoromethyl)-4H-1,2,4-triazol-3-yl]-3H-imidazo[4,5-c]pyridin-2-yl)methyl]piperidin-3-ol]
